Where a name gives a salt, the structure may show the parent alone.

The target of one test is hNav1.7 (Homo sapiens (Human), UniProt Q15858). The experiment in a line: Tritiated compound binding to membranes from cells expressing hNav1.7 and the β1 subunit, competitive binding (LBA, Ex. 243A). The following applies: 100 pM [3H]compound, 18 h, room temperature; read-out: Nav1.7 (LBA) (Ex. 243A). Here is the method: Tritiated Compound Binding to Membranes Isolated from Cells that Heterologously Express hNav1.7 and the β1 Subunit
hNav1.7, sequence (Q15858 whole entry, looked up): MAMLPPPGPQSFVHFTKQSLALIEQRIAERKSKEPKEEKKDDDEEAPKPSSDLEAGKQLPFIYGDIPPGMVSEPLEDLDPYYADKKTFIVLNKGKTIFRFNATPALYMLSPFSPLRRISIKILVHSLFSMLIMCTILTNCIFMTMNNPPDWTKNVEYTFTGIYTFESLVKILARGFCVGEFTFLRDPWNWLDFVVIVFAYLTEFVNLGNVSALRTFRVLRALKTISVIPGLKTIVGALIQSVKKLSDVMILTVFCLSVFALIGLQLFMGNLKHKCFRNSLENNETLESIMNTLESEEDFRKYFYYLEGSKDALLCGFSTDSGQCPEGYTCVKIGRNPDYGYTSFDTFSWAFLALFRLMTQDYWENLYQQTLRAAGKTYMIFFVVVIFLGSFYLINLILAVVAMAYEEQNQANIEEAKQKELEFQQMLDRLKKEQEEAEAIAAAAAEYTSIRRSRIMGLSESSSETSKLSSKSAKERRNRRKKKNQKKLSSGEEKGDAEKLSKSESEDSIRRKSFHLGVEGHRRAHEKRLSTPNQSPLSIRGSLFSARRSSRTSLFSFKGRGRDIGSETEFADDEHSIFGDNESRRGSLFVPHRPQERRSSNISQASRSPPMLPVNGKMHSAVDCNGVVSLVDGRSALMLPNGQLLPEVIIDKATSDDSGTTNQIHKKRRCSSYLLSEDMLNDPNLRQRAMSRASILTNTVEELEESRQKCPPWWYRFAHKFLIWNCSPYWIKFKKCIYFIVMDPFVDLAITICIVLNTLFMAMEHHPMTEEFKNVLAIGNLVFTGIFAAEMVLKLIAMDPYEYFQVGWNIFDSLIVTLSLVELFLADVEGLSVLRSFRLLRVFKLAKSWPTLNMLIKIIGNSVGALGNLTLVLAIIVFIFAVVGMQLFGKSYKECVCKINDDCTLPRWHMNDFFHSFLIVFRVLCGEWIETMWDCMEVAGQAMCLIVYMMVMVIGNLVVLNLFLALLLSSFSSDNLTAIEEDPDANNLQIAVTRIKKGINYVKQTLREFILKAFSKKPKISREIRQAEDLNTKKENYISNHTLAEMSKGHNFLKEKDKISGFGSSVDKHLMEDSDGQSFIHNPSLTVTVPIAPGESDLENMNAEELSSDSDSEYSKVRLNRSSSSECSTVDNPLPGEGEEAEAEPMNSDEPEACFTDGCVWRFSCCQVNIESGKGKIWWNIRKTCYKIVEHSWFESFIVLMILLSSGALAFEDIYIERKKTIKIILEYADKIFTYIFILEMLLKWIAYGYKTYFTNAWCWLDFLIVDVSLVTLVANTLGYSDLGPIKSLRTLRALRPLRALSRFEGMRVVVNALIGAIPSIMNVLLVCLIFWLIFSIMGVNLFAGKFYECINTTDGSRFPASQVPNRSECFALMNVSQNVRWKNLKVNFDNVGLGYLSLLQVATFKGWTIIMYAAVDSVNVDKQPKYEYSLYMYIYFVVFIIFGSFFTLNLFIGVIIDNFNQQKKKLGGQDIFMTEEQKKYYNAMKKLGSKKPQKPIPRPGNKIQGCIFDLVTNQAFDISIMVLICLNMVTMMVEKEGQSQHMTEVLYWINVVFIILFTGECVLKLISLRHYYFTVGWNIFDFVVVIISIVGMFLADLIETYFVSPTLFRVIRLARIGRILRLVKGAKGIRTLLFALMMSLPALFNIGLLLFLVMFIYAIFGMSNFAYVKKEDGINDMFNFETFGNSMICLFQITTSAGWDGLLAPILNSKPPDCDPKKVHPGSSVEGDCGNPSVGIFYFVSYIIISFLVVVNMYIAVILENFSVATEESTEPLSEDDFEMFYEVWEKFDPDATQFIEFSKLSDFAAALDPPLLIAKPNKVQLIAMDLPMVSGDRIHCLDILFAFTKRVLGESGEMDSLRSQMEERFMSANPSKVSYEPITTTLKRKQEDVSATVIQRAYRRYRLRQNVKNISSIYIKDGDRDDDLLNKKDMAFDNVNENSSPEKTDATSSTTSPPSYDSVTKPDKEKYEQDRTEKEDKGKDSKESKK
hNav1.7, sequence (Q07699 whole entry partner, looked up): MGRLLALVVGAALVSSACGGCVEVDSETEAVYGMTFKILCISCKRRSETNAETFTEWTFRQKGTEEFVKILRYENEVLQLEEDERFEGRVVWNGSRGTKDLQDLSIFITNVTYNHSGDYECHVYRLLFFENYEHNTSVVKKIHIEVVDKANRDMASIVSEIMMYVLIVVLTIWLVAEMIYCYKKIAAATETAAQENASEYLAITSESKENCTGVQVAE
Preparation of membranes containing recombinantly expressed sodium channels: Frozen recombinant cell pellets were thawed on ice and diluted to 4 times the cell pellet weight with ice cold 50 mM Tris HCl, pH 7.4 buffer. The cell suspensions were homogenized on ice using a motorized glass dounce homogeniser. Homogenates were further diluted 8.4 times with ice cold 50 mM Tris HCl, pH 7.4 buffer and then centrifuged at 200×g at 4° C. for 15 min. The supernatants were collected and centrifuged at 10000×g at 4° C. for 50 min. […] The homogenized membranes were then processed through a syringe equipped with a 26 gauge needle. Protein concentrations were determined by Bradford Assay and the membranes were stored at −80° C.
Radioligand Binding Studies: Saturation experiments. A competitive NaV1.7 inhibitor having a methyl group was tritiated. Three tritiums were incorporated in place of methyl hydrogens to generate [^3H]compound. Binding of this radioligand was performed in 5 mL borosilicate glass test tubes at room temperature. […] Non-specific binding was determined in the presence of 1 μM unlabeled compound. After 18h, the reactants were filtered through GF/C glass fiber filters presoaked in 0.5% w/v polyethylene imine. […] [^3H]compound bound to filters was quantified by liquid scintillation counting.
Competitive binding experiments: Binding reactions were performed in 96-well polypropylene plates at room temperature for 18h. In 360 μL, membranes were incubated with 100 pM [^3H]compound and increasing concentrations of Test Compound. Non-specific binding was defined in the presence of 1 μM unlabeled compound. Reactions were transferred and filtered through 96-well glass fiber/C filter plates presoaked with 0.5% polyethylene imine. The filtered reactions were washed 5 times with 200 μL ice cold buffer containing 0.25% BSA. Bound radioactivity was determined by liquid scintillation counting.
Data Analysis: For saturation experiments, non-specific binding was subtracted from total binding to provide specific binding and these values were recalculated in terms of pmol ligand bound per mg protein. Saturation curves were constructed and dissociation constants were calculated using the single site ligand binding model: Beq=(Bmax*X)/(X+Kd), where Beq is the amount of ligand bound at equilibrium, Bmax is the maximum receptor density, Kd is the dissociation constant for the ligand, and X is the free ligand concentration. For competition studies percent inhibition was determined and IC50 values were calculated using a 4 parameter logistic model (% inhibition=(A+((B−A)/(1+((x/C)^D)))) using XLfit, where A and B are the maximal and minimum inhibition respectively, C is the IC50 concentration and D is the (Hill) slope.
As to `CN(C)[C@H]1CCCC[C@@H]1Oc1cc(F)c(S(=O)(=O)Nc2nccs2)cc1C1CC1` [Example 24, 5-cyclopropyl-4-[(1S,2S)-2-(dimethylamino)cyclohexoxy]-2-fluoro-N-thiazol-2-yl-benzenesulfonamide], the IC50 was determined as 0.0499 µM. As to `CN(C)[C@H]1CC(C(F)(F)F)=CC[C@@H]1Nc1cc(F)c(S(=O)(=O)Nc2nccs2)cc1Cl` [Example 23], the IC50 amounted to 0.0084 µM. On the same count and under the same terms, for `Cc1csc(NS(=O)(=O)c2cc(Cl)c(N[C@H]3CCCC[C@@H]3N(C)C)cc2F)n1` [Example 27, 5-chloro-4-(((1 S,2S)-2-(dimethylamino)cyclohexyl)amino)-2-fluoro-N-(4-methylthiazol-2-yl)benzenesulfonamide formate] the value was 0.149 µM; for `CCN(Cc1ccccc1)[C@H]1CCCC[C@@H]1Nc1cc(F)c(S(=O)(=O)Nc2nccs2)cc1Cl` [Example 6, 4-(((1S,2S)-2-(benzyl(ethyl)amino)cyclohexyl)amino)-5-chloro-2-fluoro-N-(thiazol-2-yl)benzenesulfonamide], 0.994 µM. `CCN(CC)[C@H]1CCCC[C@@H]1Nc1cc(F)c(S(=O)(=O)Nc2nccs2)cc1Cl` [Example 17, 5-chloro-4-[[(1S,2S)-2-(diethylamino)cyclohexyl]amino]-2-fluoro-N-thiazol-2-yl-benzenesulfonamide]: the IC50 was determined as 0.237 µM. In the case of `CN[C@H]1CCCC[C@@H]1N(C)c1cc(F)c(S(=O)(=O)Nc2nccs2)cc1Cl` [Example 20, 5-chloro-2-fluoro-4-(methyl((1S,2S)-2-(methylamino)cyclohexyl)amino)-N-(thiazol-2-yl)benzenesulfonamide], the IC50 was 0.211 µM. On to `CN(C1CC1)[C@H]1CCCC[C@@H]1Nc1cc(F)c(S(=O)(=O)Nc2nccs2)cc1Cl` [Example 19, 5-chloro-4-[[(1S,2S)-2-[cyclopropyl(methyl)amino]cyclohexyl]amino]-2-fluoro-N-thiazol-2-yl-benzenesulfonamide], for which the IC50 was 0.0451 µM.

The same test, now with this note: 100 pM [3H]compound, 18 h, room temperature; read-out: Nav1.7 LBA (Ex. 243A) IC50.
As to `CCN[C@H]1CCCC[C@@H]1Oc1cc(F)c(S(=O)(=O)Nc2ccncn2)cc1C1CC1` [Example 96, 5-cyclopropyl-4-(((1S,2S)-2-(ethylamino)cyclohexyl)oxy)-2-fluoro-N-(pyrimidin-4-yl)benzenesulfonamide], the IC50 stood at 0.63 µM. On the same count and under the same terms, to `CN(C)[C@H]1CC[C@@H](C(F)(F)F)C[C@@H]1Nc1cc(F)c(S(=O)(=O)Nc2nccs2)cc1Cl` [Example 76, 5-chloro-4-(((1S,2S,5R)-2-(dimethylamino)-5-(trifluoromethyl)cyclohexyl)amino)-2-fluoro-N-(thiazol-2-yl)benzenesulfonamide] belongs 0.116 µM. Consider `CN(C)[C@@H]1CC=C(C(F)(F)F)C[C@H]1Nc1cc(F)c(S(=O)(=O)Nc2nccs2)cc1Cl` [Example 48, 5-chloro-4-(((1R,6R)-6-(dimethylamino)-3-(trifluoromethyl)cyclohex-3-en-1-yl)amino)-2-fluoro-N-(thiazol-2-yl)benzenesulfonamide formate], for which the IC50 worked out at 0.127 µM. With `CC(C)N(C)[C@H]1CCCC[C@@H]1Nc1cc(F)c(S(=O)(=O)Nc2nccs2)cc1Cl` [Example 33, 5-chloro-2-fluoro-4-(((1S,2S)-2-(isopropyl(methyl)amino)cyclohexyl)amino)-N-(thiazol-2-yl)benzenesulfonamide], the IC50 came out at 0.0824 µM. Still for that read-out and setting: for `CN(C)[C@H]1C[C@H](C(F)(F)F)CC[C@@H]1Nc1cc(F)c(S(=O)(=O)Nc2nccs2)cc1Cl` [Example 77, 5-chloro-4-(((1S,2S,4R)-2-(dimethylamino)-4-(trifluoromethyl)cyclohexyl)amino)-2-fluoro-N-(thiazol-2-yl)benzenesulfonamide] the value was 0.0432 µM; for `CCN[C@@H]1CCCC[C@H]1Oc1cc(F)c(S(=O)(=O)Nc2nccs2)cc1Cl` [Example 43, 5-chloro-4-(((1R,2R)-2-(ethylamino)cyclohexyl)oxy)-2-fluoro-N-(thiazol-2-yl)benzenesulfonamide], 1.13 µM. Same read-out and setting: to `CN(C)[C@H]1C[C@@H](C(F)(F)F)CC[C@@H]1Nc1cc(F)c(S(=O)(=O)Nc2nccs2)cc1Cl` [Example 82, 5-chloro-4-(((1S,2S,4S)-2-(dimethylamino)-4-(trifluoromethyl)cyclohexyl)amino)-2-fluoro-N-(thiazol-2-yl)benzenesulfonamide] belongs 0.00335 µM; to `CN(C)[C@@H]1C[C@@H](C(F)(F)F)CC[C@H]1Nc1cc(F)c(S(=O)(=O)Nc2nccs2)cc1Cl` [Example 81, 5-chloro-4-(((1R,2R,4S)-2-(dimethylamino)-4-(trifluoromethyl)cyclohexyl)amino)-2-fluoro-N-(thiazol-2-yl)benzenesulfonamide], 1.74 µM; to `CCN[C@H]1CCCC[C@@H]1Nc1cc(F)c(S(=O)(=O)Nc2cccc(F)n2)cc1Cl` [Example 73, 5-chloro-4-(((1S,2S)-2-(ethylamino)cyclohexyl)amino)-2-fluoro-N-(6-fluoropyridin-2-yl)benzenesulfonamide], 0.0197 µM. Turning to `CN(C)[C@H]1CC[C@H](c2cccc(C(F)(F)F)c2)C[C@@H]1Nc1cc(F)c(S(=O)(=O)Nc2nccs2)cc1Cl` [Example 87, 5-chloro-4-(((1S,2S,5S)-2-(dimethylamino)-5-(3-(trifluoromethyl)phenyl)cyclohexyl)amino)-2-fluoro-N-(thiazol-2-yl)benzenesulfonamide], the IC50 is 0.000539 µM. Still for that read-out and setting: for `Cc1csc(NS(=O)(=O)c2cc(Cl)c(N[C@H]3CCCC[C@@H]3N3CCCC3)cc2F)n1` [Example 92, 5-chloro-2-fluoro-N-(4-methylthiazol-2-yl)-4-(((1S,2S)-2-(pyrrolidin-1-yl)cyclohexyl)amino)benzenesulfonamide formate] the value was 0.118 µM; for `CNC(=O)CN(C)[C@H]1CCCC[C@@H]1Nc1cc(F)c(S(=O)(=O)Nc2nccs2)cc1Cl` [Example 80, 2-(((1S,2S)-2-((2-chloro-5-fluoro-4-(N-(thiazol-2-yl)sulfamoyl)phenyl)amino)cyclohexyl)(methyl)amino)-N-methylacetamide formate], 0.122 µM; for `O=S(=O)(Nc1ccncn1)c1cc(Cl)c(N[C@H]2CCCC[C@@H]2N2CCCC2)cc1F` [Example 60, 5-chloro-2-fluoro-N-(pyrimidin-4-yl)-4-(((1S,2S)-2-(pyrrolidin-1-yl)cyclohexyl)amino)benzenesulfonamide], 0.198 µM. On the same count and under the same terms, to `CN(C[C@@H](O)C(F)(F)F)[C@H]1CCCC[C@@H]1Nc1cc(F)c(S(=O)(=O)Nc2nccs2)cc1Cl` [Example 95, 5-chloro-2-fluoro-4-(((1S,2S)-2-(methyl((R)-3,3,3-trifluoro-2-hydroxypropyl)amino)cyclohexyl)amino)-N-(thiazol-2-yl)benzenesulfonamide] belongs 0.0243 µM; to `CN(C1COC1)[C@H]1CCCC[C@@H]1Nc1cc(F)c(S(=O)(=O)Nc2nccs2)cc1Cl` [Example 97, 5-chloro-2-fluoro-4-(((1S,2S)-2-(methyl(oxetan-3-yl)amino)cyclohexyl)amino)-N-(thiazol-2-yl)benzenesulfonamide], 0.0364 µM.

With `O=S(=O)(Nc1nccs1)c1cc(Cl)c(N[C@H]2CCCC[C@@H]2N2CCC(F)C2)cc1F` (stereo partly drawn) [Example 104, 5-chloro-2-fluoro-4-(((1S,2S)-2-(3-fluoropyrrolidin-1-yl)cyclohexyl)amino)-N-(thiazol-2-yl)benzenesulfonamide], the IC50 stood at 0.0356 µM. Same read-out and setting: for `CN(C)[C@H]1CC[C@H](C(F)(F)F)C[C@@H]1Nc1cc(F)c(S(=O)(=O)Nc2nccs2)cc1Cl` [Example 75, 5-chloro-4-(((1S,2S,5S)-2-(dimethylamino)-5-(trifluoromethyl)cyclohexyl)amino)-2-fluoro-N-(thiazol-2-yl)benzenesulfonamide] the value was 0.0379 µM. On the same count and under the same terms, to `CC(O)CN(C)[C@H]1CCCC[C@@H]1Nc1cc(F)c(S(=O)(=O)Nc2nccs2)cc1Cl` (stereo partly drawn) [Example 45, 5-chloro-2-fluoro-4-(((1 S,2S)-2-((2-hydroxypropyl)(methyl)amino)cyclohexyl)amino)-N-(thiazol-2-yl)benzenesulfonamide] belongs 0.0127 µM; to `Cc1cnc(NS(=O)(=O)c2cc(Cl)c(N[C@H]3CCCC[C@@H]3N(C)C)cc2F)s1` [Example 40, 5-chloro-4-(((1S,2S)-2-(dimethylamino)cyclohexyl)amino)-2-fluoro-N-(5-methylthiazol-2-yl)benzenesulfonamide formate], 0.88 µM.

The record behind these values is US10457654B2 (GENENTECH, INC., priority 2017, dated 2019).
